Results on eleven compounds are retold here after patent US8232063B2, “H+-gated ion channel” (University of Utah Research Foundation, priority 2004, dated 2012).

The test system of assay [1] is posterior body contraction. Nature of the assay: Posterior body contraction of the defecation cycle in vivo. The settings on record: 100 mM, pH 7.2, injected into pseudocoelomic space. Set-up: species or system C. elegans. The procedure: To determine if H^+ ions are required to initiate a posterior body contraction endogenous acidification of the pseudocoelomic space is blocked. For example, 100 mM Bis-Tris Propane buffered saline (pH 7.2) is injected into the pseudocoelomic space of an animal and defecation cycles postinjection observed. […] The injected animals should phenocopy both pbo-4 and pbo-5 mutants.
Alternatively, a caged buffer is used to assay the requirement for H^+ activation of PBO-5/PBO-8 receptors in vivo. For example, animals are injected with a caged buffer (Molecular Probes) and the buffer uncaged, by flash photolysis, as a posterior body contraction is about to occur. An advantage of the latter scheme is that an animal can be injected first and then observed for a number of cycles to determine if it retains normal defecation cycles, and in particular posterior body contractions. After quantification of a number of defecation cycles, the buffer is uncaged and the animal observed for a specific loss of posterior body contraction. Li addition, the inverse experiment, where caged protons are injected, may be conducted to elicit an out of phase posterior body contraction by uncaging the protons during the intercycle.
The posterior body contraction occurs via a calcium-regulated mechanism. […]

The subject of assay [2] is PBO-5/PBO-8 receptors. Nature of the assay: Two-electrode voltage clamp of Xenopus oocytes coinjected with PBO-5 and PBO-8 cRNA. Format: cell-based, C. elegans. To be noted: for run-down (use-dependent block) of H+-evoked current by the buffer of the extracellular solution: repeated pH 6.8 test pulses. The procedure: (§1) Capped RNA was prepared using the T7 mMessage mMachine kit (Ambion). Xenopus oocytes were collected and coinjected with 25 ng each of PBO-5 and PBO-8 cRNA and two-electrode voltage clamp recordings were performed 3-5 days post-injection. The standard bath solution for dose-response and control I-V experiments was Ringer's (in mM): 115 NaCl, 1.8 […], 10 Bis-Tris Propane (pH 7.4 Acetic acid). For dose-response experiments, each oocyte was subjected to a 5 second application of test pH (7.0 - 5.0) with 2 minutes of pH 7.4 wash between test applications.
Ion selectivity experiments: All points are responses to test pulse applications of pH 6.8 for 5 seconds. The reversal potential of PBO-5/PBO-8 expressing oocytes were first determined in standard Ringer's (in mM): 115 NaCl, 1.0 CaCl2, 10 Bis-Tris Propane (pH 7.4, acetic acid). For chloride permeability a simplified solution was used, chloride-free (in mM): 115 Na^+ gluconate, 1.0 CaCl2, 10 Bis-Tris Propane (pH 7.4 acetic acid). For Na^+ permeability a simplified solution was used, Na^+ free (in mM): 115 mM N-methyl D-glucamine (NMDG), 1.8 CaCl2, 10 Bis-Tris Propane (pH 7.4 acetic acid)). All solutions were brought to pH by addition of NaOH or acetic acid. To determine K^+ permeability, I-V experiments were performed in K^+ Ringer's (in mM): 115 K^+-gluconate, 1.0 CaCl2, 10 Bis-Tris Propane (pH=7.4 acetic acid). To determine Ca^2+ permeability extracellular Na^+ was lowered to 90 mM and extracellular CaCl2 was increased to 3 mM and 10 mM, compare to 1 mM Ca^2+ control. To better resolve calcium permeability, the Na^+ free solution was used except CaCl2 was increased ten-fold, 18 mM CaCl2 (in mM): 115 NMDG, 18 CaCl2, 10 Bis-Tris Propane, (pH 7.4 acetic acid). Osmolarity was measured for each solution and was maintained at 240 mOsm by the addition of sucrose. All recordings were done at room temperature. We used 3M KCl filled electrodes with a resistance between 1-3 MΩ. We used a 3M KCl agar bridge to minimize liquid junction potentials, and all liquid junctions potentials arising at the tip of the recording electrode were corrected online.
Data analysis. Data acquisition and analysis were performed using Axograph (Axon Instruments) software, and curve fitting and statistical analysis were performed with Prism (Graphpad). Dose-response curves from individual oocytes were normalized to the maximum and minimum values and averaged for at least eleven oocytes. Normalized data were fit to the four-parameter equation derived from the Hill equation: Y=Min+(Max−Min)/(1+10(Log EC50-X)(nH)), where Max is the maximal response, Min is the response at the lowest drug concentration, X is the logarithm of agonist concentration, EC50 is the half-maximal response, and nH is the Hill coefficient. Error bars represent the standard error of the mean.

For assay [3], the system named is PBO-8 homomers. Nature of the assay: Two-electrode voltage clamp of Xenopus oocytes injected with PBO-8 cRNA (homomers). The class given is cell-based, C. elegans.
Assay [4] deals with T1, PBO-5 homomers (Caenorhabditis elegans, UniProt G5ECT0).
T1 construct: cloned into the pCR2.1 TA cloning vector (Invitrogen) and a full length clone pPD68 was generated; expressed in transfected cells; host or cells: Xenopus oocytes injected with PBO-5 cRNA (pSGEM-based plasmid pAB20)
T1 sequence (G5ECT0 22-504 isoform G5ECT0-2 limits assumed): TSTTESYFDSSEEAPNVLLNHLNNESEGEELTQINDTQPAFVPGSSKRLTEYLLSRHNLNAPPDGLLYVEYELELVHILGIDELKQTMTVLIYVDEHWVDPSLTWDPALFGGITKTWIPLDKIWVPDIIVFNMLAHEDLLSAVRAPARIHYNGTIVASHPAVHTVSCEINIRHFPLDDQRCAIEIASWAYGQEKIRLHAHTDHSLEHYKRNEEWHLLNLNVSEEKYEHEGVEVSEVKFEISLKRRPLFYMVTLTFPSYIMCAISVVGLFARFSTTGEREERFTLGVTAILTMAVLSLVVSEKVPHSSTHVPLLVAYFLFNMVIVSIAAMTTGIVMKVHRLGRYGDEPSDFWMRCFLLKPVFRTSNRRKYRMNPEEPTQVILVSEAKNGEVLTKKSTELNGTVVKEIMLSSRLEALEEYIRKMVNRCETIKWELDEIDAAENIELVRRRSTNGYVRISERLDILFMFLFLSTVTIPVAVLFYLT
Nature of the assay: Two-electrode voltage clamp of Xenopus oocytes injected with PBO-5 cRNA (homomers). Format: cell-based, C. elegans. The procedure: as §1
To determine if PBO-5 can form a homo-oligomeric receptor, we injected PBO-5 cRNA in Xenopus oocytes. […] Two-electrode voltage clamp recordings were used to assay receptor functionality.
To determine if PBO-5 and PBO-8 can co-assemble to form a functional receptor, we injected PBO-5 and PBO-8 cRNA into Xenopus oocytes. […] To determine the possible signal that mediates posterior body contraction we examined the pbo-4 gene.
(Two-electrode voltage clamp is typically applied to oocytes expressing channels or transporters.)

[5] abbreviates: Xenopus oocytes, two-electrode voltage clamp.

“Also recorded” adds a separate entry of the source. Like-named read-outs stand apart in the source and are kept apart here.

With `OCC(CO)(CO)NCCCNC(CO)(CO)CO` [Bis-Tris Propane, 1,3-Bis[tris(hydroxymethyl)methylamino) propane], in assay [1], the “posterior body contraction after injection of buffered saline into the pseudocoelomic space” value is “fail to initiate a posterior body contraction”. Moreover, the “run-down (use-dependent block) of H+-evoked current by the buffer of the extracellular solution” value (shortened to “run-down (use-dependent block)”) in assay [2] is recorded as “did not cause current run-down”.
For the compound `[Ca+2]` [Ca^2+], the “maximal activation of PBO-5/PBO-8 on increasing extracellular Ca2+” value in assay [2] (pH 6.0) is given as “no effect on maximal activation”. Further, the “effect of extracellular Ca2+ on gating of PBO-5/PBO-8 (mode of action)” value in assay [2] (pH 6.8, 10.0 mM vs 1.0 mM Ca2+) is on record as “inhibit gating; also recorded: competitive antagonist”. The “H-evoked responses compared to 1 mM Ca2+ control” value in assay [2] (pH 7.0 and 6.8, Ca2+ increased to 3 mM and 10 mM) is listed as “significantly reduced”.
Regarding `NCCCC(=O)O` [GABA, γ-aminobutyric acid], in assay [3], the “activation of PBO-8 homomers” value is given as “lacked the ability to activate”. Also, the “activation of PBO-5 homomers (functional response)” value (from here on “activation of PBO-5 homomers”) in assay [4] is given as “failed to elicit a functional response; also recorded: lacked the ability to activate”. In assay [2] (1 mM ligand, pH 6.8), the “co-activation: pH 6.8 plus ligand compared with pH 6.8 only application” value is recorded as “not significantly different”. Besides, the “activation of PBO-5/PBO-8 heteromers” value in assay [2] (setting [5]) was “lacked the ability to activate”.
On to `O=S(=O)(O)CCN1CCN(CCO)CC1` [HEPES, N-2-hydroxyethylpiperazine-N′-2-ethanesulfonic acid], for which, in assay [2], the “run-down (use-dependent block)” value is listed as “very rapid rundown; also recorded: inhibitory to the receptor”.
With `[1H+]` [H^+], the pH50 in assay [2] (1 mM Ca2+ control conditions) is on record as 6.88; in assay [2] (10 mM Ca2+ test conditions), 6.59. The “activation of PBO-5/PBO-8 heteromers” value in assay [2] (setting [5]) is listed as “sufficient to activate”. Besides, the “pH of 10% maximal activation” value in assay [2] (perfusion buffer pH 7.4) is approximately 7.0. The “pH50 (half-maximal activation)” value in assay [2] (voltage-clamped at -60 mV, test pH 5 seconds, standard Ringer's, n=18) was found to be 6.83±0.01.
Consider `O=S(=O)(O)CCN1CCOCC1` [MES, 2-(N-Morpholino)-ethanesulfonic acid], for which, in assay [2], the “run-down (use-dependent block)” value is on record as “did not cause current run-down”.
In the case of `N=C(N)NC(=O)c1nc(Cl)c(N)nc1N` [amiloride], the “block of PBO-5/8 gating” value in assay [2] (1 mm amiloride) is listed as “did not result current block”.
Take `N[C@@H](CCC(=O)O)C(=O)O` [glutamate]: the “activation of PBO-8 homomers” value in assay [3] is “lacked the ability to activate”. Moreover, in assay [4], the “activation of PBO-5 homomers” value is listed as “lacked the ability to activate”. Further, the “activation of PBO-5/PBO-8 heteromers” value in assay [2] (setting [5]) is recorded as “lacked the ability to activate”.
As to `NCC(=O)O` [glycine], the “activation of PBO-8 homomers” value in assay [3] is recorded as “lacked the ability to activate”. For the same compound, the “activation of PBO-5 homomers” value in assay [4] is recorded as “failed to elicit a functional response; also recorded: lacked the ability to activate”. Also, the “activation of PBO-5/PBO-8 heteromers” value in assay [2] is recorded as “lacked the ability to activate”.
Take `NCCc1c[nH]c2ccc(O)cc12` [serotonin]: in assay [3], the “activation of PBO-8 homomers” value is recorded as “lacked the ability to activate”. For the same compound, the “activation of PBO-5 homomers” value in assay [4] is listed as “failed to elicit a functional response”; in assay [4] (listed as 5-HT), “lacked the ability to activate”. Besides, in assay [2] (setting [5]), the “activation of PBO-5/PBO-8 heteromers” value is “lacked the ability to activate”.
On to d-tubocurare, for which, in assay [2] (cholinergic antagonist applied to PBO-5/8 expressing cells), the “pharmacological block of PBO-5/8 responses” value was “all attempts to pharmacologically block PBO-5/8 responses failed”.
